The text below walks through data of patent publication US5840684A, “Glycopeptide antibiotic derivatives” (Eli Lilly and Company, priority 1995, dated 1998).

Experiment [1] deals with Staphylococcus aureus S13E. It is filed as cell-based. Here is the method:
(§1) The MIC's were determined using a standard broth micro-dilution assay.

In experiment [2] the test system is Staphylococcus aureus SA1199B. It counts as cell-based. Here is the method:
as §1

Experiment [3] relates to Entercoccus faecium 180-1. Put plainly: broth micro-dilution MIC. It is filed as cell-based. Here is the method: as §1
(In general: Dilution methods test growth across graded concentrations, often in twofold steps.)

Experiment [4] has as its system Entercoccus faecium 276. Put plainly: broth micro-dilution MIC. It is filed as cell-based. Here is the method:
as §1

In experiment [5] the test system is Staphylococcus aureus 446. Description: broth micro-dilution MIC. It counts as cell-based. Here is the method: as §1
In experiment [6] the test system is Staphylococcus aureus 447. Description: broth micro-dilution MIC. It counts as cell-based. Here is the method: as §1
The test system of experiment [7] is Staphylococcus aureus 489. Put plainly: broth micro-dilution MIC. It counts as cell-based. Here is the method:
as §1

For experiment [8], the system named is Staphylococcus aureus 491. Put plainly: broth micro-dilution MIC. It is filed as cell-based. Here is the method:
as §1

For experiment [9], the system named is Staphylococcus aureus SA1199A. Description: broth micro-dilution MIC. It is filed as cell-based. Here is the method: as §1
Experiment [10] relates to Staphylococcus aureus SA1199. Put plainly: broth micro-dilution MIC. It counts as cell-based. Here is the method:
as §1

Experiment [11] has as its system Staphylococcus aureus X400. Description: broth micro-dilution MIC. It counts as cell-based. Here is the method: as §1
The subject of experiment [12] is Staphylococcus aureus X778. Put plainly: broth micro-dilution MIC. It counts as cell-based. Here is the method:
as §1

The subject of experiment [13] is Streptococcus pyogenes C203. Put plainly: broth micro-dilution MIC. It counts as cell-based. Here is the method:
as §1

In experiment [14] the test system is Entercoccus faecium 180. Put plainly: broth micro-dilution MIC. It is filed as cell-based. The settings on record: Entercoccus faecium 180. Here is the method: (§2) The formula I compounds have in vitro and in vivo activity against Gram-positive pathogenic bacteria. The MIC's were determined using a standard broth micro-dilution assay.
Experiment [15] has as its system Entercoccus faecium 2041. Put plainly: broth micro-dilution MIC. It is filed as cell-based. The settings on record: Entercoccus faecium 2041. Here is the method: as §2
The test system of experiment [16] is Enterococcus gallinarum 245. Description: broth micro-dilution MIC. It counts as cell-based. The settings on record: Enterococcus gallinarum 245. Here is the method: as §2
Experiment [17] has as its system Staphylococcus epidermidis 270. Put plainly: broth micro-dilution MIC. It is filed as cell-based. Here is the method: as §2
The subject of experiment [18] is Staphylococcus haemolyticus 105. Description: broth micro-dilution MIC. It is filed as cell-based. Here is the method:
as §2

In experiment [19] the test system is Staphylococcus haemolyticus 415. Description: broth micro-dilution MIC. It counts as cell-based. Here is the method: as §2
Experiment [20] relates to Streptococcus pneumoniae P1. Description: broth micro-dilution MIC. It counts as cell-based. Here is the method: as §2
In experiment [21] the test system is vancomycin-resistant enterococci. Put plainly: broth micro-dilution, mean geometric MIC. It is filed as cell-based, Enterococcus faecium and Enterococcus faecalis. The settings on record: enterococci, 24-hour incubation.
Experiment [22] relates to vancomycin-susceptible enterococci. Description: broth micro-dilution, mean geometric MIC. The settings on record: enterococci, 24-hour incubation. It counts as cell-based, Enterococcus faecium and Enterococcus faecalis.

In brackets after ≈: the same amount, converted by molar mass.

As a reminder, the MIC is the lowest concentration found to suppress growth. As to `CNC(CC(C)C)C(=O)NC1C(=O)NC(CC(N)=O)C(=O)NC2C(=O)NC3C(=O)NC(C(=O)NC(C(=O)O)c4cc(O)cc(O)c4-c4cc3ccc4O)C(OC3CC(C)(N)C(O)C(C)O3)c3ccc(c(Cl)c3)Oc3cc2cc(c3OC2OC(CO)C(O)C(O)C2OC2CC(C)(NCc3cccnc3)C(O)C(C)O2)Oc2ccc(cc2Cl)C1O` (centres unmarked) [Compound 24], the MIC was at most 0.06 µg/mL in experiment [1]; 2 µg/mL (≈ 1.19 µM) in experiment [2]; at most 0.06 µg/mL in experiment [3]; 0.25 µg/mL (≈ 0.148 µM) in experiment [4]; 0.5 µg/mL (≈ 0.297 µM) in experiment [5]; 1 µg/mL (≈ 0.594 µM) in experiment [6]. Besides, the MIC was at most 0.06 µg/mL in experiment [7]; 0.5 µg/mL (≈ 0.297 µM) in experiment [8]; at most 0.06 µg/mL in experiment [9]; 0.5 µg/mL (≈ 0.297 µM) in experiment [10]; 0.25 µg/mL (≈ 0.148 µM) in [11]; 0.125 µg/mL (≈ 0.0742 µM) in [12]. Moreover, the minimal inhibitory concentration (MIC) in experiment [13] is at most 0.06 µg/mL; in [14], 4 µg/mL (≈ 2.38 µM); in [15], at most 0.06 µg/mL; in [16], 0.25 µg/mL (≈ 0.148 µM); in experiment [17], 1 µg/mL (≈ 0.594 µM); in experiment [18] it was 4 µg/mL (≈ 2.38 µM). Besides, the MIC in experiment [19] and in experiment [20] was at most 0.06 µg/mL throughout. Also, the “mean geometric MIC, Vancomycin Resistant Strains” value in experiment [21] was determined as 54 µg/mL. In experiment [22], the “mean geometric MIC, Vancomycin Sensitive Strains” value is 0.67 µg/mL.
On to `CNC(CC(C)C)C(=O)NC1C(=O)NC(CC(N)=O)C(=O)NC2C(=O)NC3C(=O)NC(C(=O)NC(C(=O)O)c4cc(O)cc(O)c4-c4cc3ccc4O)C(OC3CC(C)(N)C(O)C(C)O3)c3ccc(c(Cl)c3)Oc3cc2cc(c3OC2OC(CO)C(O)C(O)C2OC2CC(C)(NCc3ccnc4ccccc34)C(O)C(C)O2)Oc2ccc(cc2Cl)C1O` (centres unmarked) [Compound 27], for which the MIC was 0.125 µg/mL (≈ 0.0721 µM) in [1]; 1 µg/mL (≈ 0.577 µM) in experiment [2]; 0.5 µg/mL (≈ 0.288 µM) in experiment [3]; 0.5 µg/mL (≈ 0.288 µM) in experiment [4]; 2 µg/mL (≈ 1.15 µM) in [5]; 8 µg/mL (≈ 4.61 µM) in experiment [6]. Further, the MIC in experiment [7] is at most 0.06 µg/mL; in experiment [8], 1 µg/mL (≈ 0.577 µM); in experiment [9], at most 0.06 µg/mL; in experiment [10], 0.5 µg/mL (≈ 0.288 µM); in experiment [11], 0.5 µg/mL (≈ 0.288 µM); in [12] it was 0.5 µg/mL (≈ 0.288 µM). For the same molecule, the MIC was at most 0.06 µg/mL in [13]; 8 µg/mL (≈ 4.61 µM) in [14]; 0.125 µg/mL (≈ 0.0721 µM) in experiment [15]; 0.5 µg/mL (≈ 0.288 µM) in [16]; 4 µg/mL (≈ 2.31 µM) in [17]; 16 µg/mL (≈ 9.23 µM) in [18]. Also, the results for the MIC in experiment [19] and in experiment [20] were 8 µg/mL (≈ 4.61 µM) and at most 0.06 µg/mL, respectively. Also, the “mean geometric MIC, Vancomycin Resistant Strains” value in experiment [21] turned out to be 45 µg/mL. For the same molecule, the “mean geometric MIC, Vancomycin Sensitive Strains” value in [22] is 1.5 µg/mL.
